Each structure is given as a SMILES string.

Chain of human V1a receptor (P37288 whole entry): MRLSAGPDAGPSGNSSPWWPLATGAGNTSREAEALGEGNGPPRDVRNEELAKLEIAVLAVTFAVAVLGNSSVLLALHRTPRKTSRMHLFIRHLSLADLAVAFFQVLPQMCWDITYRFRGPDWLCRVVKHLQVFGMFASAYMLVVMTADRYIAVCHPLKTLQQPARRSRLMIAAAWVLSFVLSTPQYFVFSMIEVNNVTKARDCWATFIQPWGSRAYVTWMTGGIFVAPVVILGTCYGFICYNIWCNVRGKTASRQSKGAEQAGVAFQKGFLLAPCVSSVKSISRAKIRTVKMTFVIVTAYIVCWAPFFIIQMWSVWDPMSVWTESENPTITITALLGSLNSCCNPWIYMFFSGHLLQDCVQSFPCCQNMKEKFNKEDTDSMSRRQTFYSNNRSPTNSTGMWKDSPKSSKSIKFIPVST

The experiment has as its target human V1a receptor (Homo sapiens (Human), UniProt P37288). The experiment is described as follows: human V1a receptor binding studies (3H-Vasopressin, SPA beads). The following applies: membranes of HEK293 cells transiently transfected with human V1a receptor, Ki by Cheng-Prussoff. How it is done: The human V1a receptor was cloned by RT-PCR from total human liver RNA. The coding sequence was subcloned in an expression vector after sequencing to confirm the identity of the amplified sequence. […] Cell membranes were prepared from HEK293 cells transiently transfected with the expression vector and grown in 20 liter fermenters with the following protocol.
50 g of cells are re-suspended in 30 ml freshly prepared ice cold Lysis buffer (50 mM HEPES, 1 mM EDTA, 10 mM MgCl2 adjusted to pH=7.4+complete cocktail of protease inhibitor (Roche Diagnostics)). Homogenized with Polytron for 1 min and sonicated on ice for 2×2 minutes at 80% intensity (Vibracell sonicator). The preparation is centrifuged 20 min at 500 g at 4° C., the pellet is discarded and the supernatant centrifuged 1 hour at 43,000 g at 4° C. (19,000 rpm). The pellet is re-suspended in 12.5 ml Lysis buffer+12.5 ml Sucrose 20% and homogenized using a Polytron for 1-2 min. The protein concentration is determined by the Bradford method and aliquots are stored at −80° C. until use. For binding studies 60 mg Yttrium silicate SPA beads (Amersham) are mixed with an aliquot of membrane in binding buffer (50 mM Tris, 120 mM NaCl, 5 mM KCl, 2 mM CaCl2, 10 mM MgCl2) for 15 minutes with mixing. 50 μl of bead/membrane mixture is then added to each well of a 96 well plate, followed by 50 μl of 4 nM 3H-Vasopressin (American Radiolabeled Chemicals). For total binding measurement 100 μl of binding buffer are added to the respective wells, for non-specific binding 100 μl of 8.4 mM cold vasopressin and for compound testing 100 μl of a serial dilution of each compound in 2% DMSO. The plate is incubated 1 h at room temperature, centrifuged 1 min at 1000 g and counted on a Packard Top-Count. Non-specific binding counts are subtracted from each well and data is normalized to the maximum specific binding set at 100%. To calculate an IC 50 the curve is fitted using a non-linear regression model (XLfit) and the Ki is calculated using the Cheng-Prussoff equation.
As for `CC/C(=C1/SC(N2CCC3(CC2)OCc2ccccc23)=NC1=O)c1ccc(Cl)cc1` [Example 24, (5Z)-5-[1-(4-chlorophenyl)propylidene]-2-(1′H,3H-spiro[2-benzofuran-1,4′-piperidin]-1′-yl)-1,3-thiazol-4(5H)-one], the “pKi hV1a” value is listed as 9.1.
The value for `CC/C(=C1\SC(N2CCC3(CC2)OCc2ccccc23)=NC1=O)c1ccc(Cl)cc1` [Example 25, (5E)-5-[1-(4-chlorophenyl)propylidene]-2-(1′H,3H-spiro[2-benzofuran-1,4′-piperidin]-1′-yl)-1,3-thiazol-4(5H)-one] was 8.2; that for `C/C(=C1/SC(N2CCC3(CC2)OCc2ccccc23)=NC1=O)c1ccc(Cl)cc1` [Example 26, (5Z)-5-[1-(4-chlorophenyl)ethylidene]-2-(1′H,3H-spiro[2-benzofuran-1,4′-piperidin]-1′-yl)-1,3-thiazol-4(5H)-one] was 9.2.
In the case of `C/C(=C1\SC(N2CCC3(CC2)OCc2ccccc23)=NC1=O)c1ccc(Cl)cc1` [Example 27, (5E)-5-[1-(4-chlorophenyl)ethylidene]-2-(1′H,3H-spiro[2-benzofuran-1,4′-piperidin]-1′-yl)-1,3-thiazol-4(5H)-one] it was 8.3; in that of `C/C(=C1\SC(N2CCC3(CC2)OCc2ccccc23)=NC1=O)C1CCCCC1` [Example 28, (5E)-5-(1-cyclohexylethylidene)-2-(1′H,3H-spiro[2-benzofuran-1,4′-piperidin]-1′-yl)-1,3-thiazol-4(5H)-one], 7.9.
In the case of `C/C(=C1/SC(N2CCC3(CC2)OCc2ccccc23)=NC1=O)C1CCCCC1` [Example 29, (5Z)-5-(1-cyclohexylethylidene)-2-(1′H,3H-spiro[2-benzofuran-1,4′-piperidin]-1′-yl)-1,3-thiazol-4(5H)-one] it was 8.7; in that of `CC(C)=C1SC(N2CCC3(CC2)OCc2ccccc23)=NC1=O` [Example 30, 5-(propan-2-ylidene)-2-(1′H,3H-spiro[2-benzofuran-1,4′-piperidin]-1′-yl)-1,3-thiazol-4(5H)-one], 7.8.
For `CC/C(=C1/SC(N2CCC3(CC2)OCc2ccccc23)=NC1=O)c1ccncc1` [Example 31, (5Z)-5-[1-(pyridin-4-yl)propylidene]-2-(1′H,3H-spiro[2-benzofuran-1,4′-piperidin]-1′-yl)-1,3-thiazol-4(5H)-one], the “pKi hV1a” value was 8.4.
With `CC/C(=C1\SC(N2CCC3(CC2)OCc2ccccc23)=NC1=O)c1ccncc1` [Example 32, (5E)-5-[1-(pyridin-4-yl)propylidene]-2-(1′H,3H-spiro[2-benzofuran-1,4′-piperidin]-1′-yl)-1,3-thiazol-4(5H)-one], the “pKi hV1a” value is 7.9.
In the case of `C/C(=C1/SC(N2CCC3(CC2)OCc2ccccc23)=NC1=O)c1ccncc1` [Example 33, (5Z)-5-[1-(pyridin-4-yl)ethylidene]-2-(1′H,3H-spiro[2-benzofuran-1,4′-piperidin]-1′-yl)-1,3-thiazol-4(5H)-one] it was 8.3; in that of `C/C(=C1/SC(N2CCC3(CC2)OCc2ccccc23)=NC1=O)c1ccc[nH]1` [Example 34, (5E/Z)-5-[1-(1H-pyrrol-2-yl)ethylidene]-2-(1′H,3H-spiro[2-benzofuran-1,4′-piperidin]-1′-yl)-1,3-thiazol-4(5H)-one], 9.2.
In the case of `C/C(=C1/SC(N2CCC3(CC2)OCc2ccccc23)=NC1=O)c1ccco1` [Example 35, (5Z)-5-[1-(furan-2-yl)ethylidene]-2-(1′H,3H-spiro[2-benzofuran-1,4′-piperidin]-1′-yl)-1,3-thiazol-4(5H)-one] it was 8.9.
The value for `C/C(=C1\SC(N2CCC3(CC2)OCc2ccccc23)=NC1=O)c1ccncc1` [Example 36, (5E)-5-[1-(pyridin-4-yl)ethylidene]-2-(1′H,3H-spiro[2-benzofuran-1,4′-piperidin]-1′-yl)-1,3-thiazol-4(5H)-one] was 7.5.
For `C/C(=C1/SC(N2CCC3(CC2)OCc2ccccc23)=NC1=O)c1cccn1C` [Example 37, (5Z)-5-[1-(1-methyl-1H-pyrrol-2-yl)ethylidene]-2-(1′H,3H-spiro[2-benzofuran-1,4′-piperidin]-1′-yl)-1,3-thiazol-4(5H)-one], the “pKi hV1a” value is 9.1.
In the case of `C/C(=C1/SC(N2CCC3(CC2)OCc2ccccc23)=NC1=O)c1ccccn1` [Example 38, (5Z)-5-[1-(pyridin-2-yl)ethylidene]-2-(1′H,3H-spiro[2-benzofuran-1,4′-piperidin]-1′-yl)-1,3-thiazol-4(5H)-one] it was 8.8.
The value for `C/C(=C1/SC(N2CCC3(CC2)OCc2ccccc23)=NC1=O)c1cccnc1` [Example 39, (5Z)-5-[1-(pyridin-3-yl)ethylidene]-2-(1′H,3H-spiro[2-benzofuran-1,4′-piperidin]-1′-yl)-1,3-thiazol-4(5H)-one] was 8.9; that for `C/C(=C1/SC(N2CCC3(CC2)OCc2ccccc23)=NC1=O)c1ccccc1F` [Example 40, (5E/Z)-5-[1-(2-fluorophenyl)ethylidene]-2-(1′H,3H-spiro[2-benzofuran-1,4′-piperidin]-1′-yl)-1,3-thiazol-4(5H)-one] was 8.9.
The value for `CC(C)(C)OC(=O)N1CCC(=C2SC(N3CCC4(CC3)OCc3ccccc34)=NC2=O)CC1` [Example 41, tert-butyl 4-[4-oxo-2-(1′H,3H-spiro[2-benzofuran-1,4′-piperidin]-1′-yl)-1,3-thiazol-5(4H)-ylidene]piperidine-1-carboxylate] was 7.6.
As for `C/C(=C1/SC(N2CCC3(CC2)OCc2ccccc23)=NC1=O)C1CC1` [Example 42, (5E/Z)-5-(1-cyclopropylethylidene)-2-(1′H,3H-spiro[2-benzofuran-1,4′-piperidin]-1′-yl)-1,3-thiazol-4(5H)-one], the “pKi hV1a” value turned out to be 8.4.
In the case of `C/C(=C1/SC(N2CCC3(CC2)OCc2ccccc23)=NC1=O)C1CCCC1` [Example 43, (5E/Z)-5-(1-cyclopentylethylidene)-2-(1′H,3H-spiro[2-benzofuran-1,4′-piperidin]-1′-yl)-1,3-thiazol-4(5H)-one] it was 8.8; in that of `O=C1N=C(N2CCC3(CC2)OCc2ccccc23)SC1=C1CCOCC1` [Example 44, 2-(1′H,3H-spiro[2-benzofuran-1,4′-piperidin]-1′-yl)-5-(tetrahydro-4H-pyran-4-ylidene)-1,3-thiazol-4(5H)-one], 8.1; in that of `O=C1N=C(N2CCC3(CC2)OCc2ccccc23)S/C1=C1/CCCc2ccccc21` [Example 45, (5Z)-5-(3,4-dihydronaphthalen-1(2H)-ylidene)-2-(1′H,3H-spiro[2-benzofuran-1,4′-piperidin]-1′-yl)-1,3-thiazol-4(5H)-one], 8.7.
In the case of `O=C1N=C(N2CCC3(CC2)OCc2ccccc23)S/C1=C1/CCc2ccccc21` [Example 46, (5Z)-5-(2,3-dihydro-1H-inden-1-ylidene)-2-(1′H,3H-spiro[2-benzofuran-1,4′-piperidin]-1′-yl)-1,3-thiazol-4(5H)-one] it was 8.3; in that of `O=C1N=C(N2CCC3(CC2)OCc2ccccc23)S/C1=C1/CCCCc2ccccc21` [Example 47, (5Z)-2-(1′H,3H-spiro[2-benzofuran-1,4′-piperidin]-1′-yl)-5-(6,7,8,9-tetrahydro-5H-benzo[7]annulen-5-ylidene)-1,3-thiazol-4(5H)-one], 9.3; in that of `C/C(=C1/SC(N2CCC3(CC2)OCc2ccccc23)=NC1=O)c1ccnc(Cl)c1` [Example 48, (5E/Z)-5-[1-(2-chloropyridin-4-yl)ethylidene]-2-(1′H,3H-spiro[2-benzofuran-1,4′-piperidin]-1′-yl)-1,3-thiazol-4(5H)-one], 8.6.
In the case of `C/C(=C1/SC(N2CCC3(CC2)OCc2ccccc23)=NC1=O)c1ccc(Cl)nc1` [Example 49, (5E/Z)-5-[1-(6-chloropyridin-3-yl)ethylidene]-2-(1′H,3H-spiro[2-benzofuran-1,4′-piperidin]-1′-yl)-1,3-thiazol-4(5H)-one] it was 9.1; in that of `COC/C(C)=C1\SC(N2CCC3(CC2)OCc2ccccc23)=NC1=O` [Example 50, (5E/Z)-5-(1-methoxypropan-2-ylidene)-2-(1′H,3H-spiro[2-benzofuran-1,4′-piperidin]-1′-yl)-1,3-thiazol-4(5H)-one], 8.4.
Regarding `C/C(CF)=C1/SC(N2CCC3(CC2)OCc2ccccc23)=NC1=O` [Example 51, (5E/Z)-5-(1-fluoropropan-2-ylidene)-2-(1′H,3H-spiro[2-benzofuran-1,4′-piperidin]-1′-yl)-1,3-thiazol-4(5H)-one], the “pKi hV1a” value turned out to be 7.9.

The values above are taken from patent US10092551B2, “Spiro-thiazolones” (Hoffmann-La Roche Inc., priority 2014, dated 2018).
